Results as given in ChEMBL document CHEMBL3046027, “In vitro and in vivo antifungal activity of synthetic pure isothiocyanates against Sclerotinia sclerotiorum” (Pest Manag Sci, 2011).

How the values were obtained:
[1] = tested on: Sclerotinia sclerotiorum; assay: In vivo antifungal Sclerotinia sclerotiorum in Pepper (Capsicum annuum L. cv. Sera Demre) assessed as inhibition of mycelial growth in volatile phase at 134 umol/L measured after 10 to 14 weeks; format: functional
[2] = tested on: Sclerotinia sclerotiorum; assay: In vivo antifungal Sclerotinia sclerotiorum in Pepper (Capsicum annuum L. cv. Sera Demre) assessed as inhibition of mycelial growth in volatile phase at 67 umol/L measured after 10 to 14 weeks; format: functional
[3] = tested on: Sclerotinia sclerotiorum; assay: Antifungal activity against Sclerotinia sclerotiorum assessed as inhibition of mycelial growth in volatile phase at 670 umol/l measured at 20 degC after 5 days; format: functional; conditions: 120 h, read-out: GI
[4] = tested on: Sclerotinia sclerotiorum; assay: Antifungal activity against Sclerotinia sclerotiorum assessed as inhibition of mycelial growth in volatile phase at 469 umol/l measured at 20 degC after 5 days; format: functional; conditions: 120 h, read-out: GI
[5] = tested on: Sclerotinia sclerotiorum; assay: Antifungal activity against Sclerotinia sclerotiorum assessed as inhibition of mycelial growth in volatile phase at 335 umol/l measured at 20 degC after 5 days; format: functional; conditions: 120 h, read-out: GI
[6] = tested on: Sclerotinia sclerotiorum; assay: Antifungal activity against Sclerotinia sclerotiorum assessed as inhibition of mycelial growth in volatile phase at 67 umol/l measured at 20 degC after 5 days; format: functional; conditions: 120 h, read-out: GI
[7] = tested on: Sclerotinia sclerotiorum; assay: Antifungal activity against Sclerotinia sclerotiorum assessed as inhibition of mycelial growth in volatile phase at 34 umol/l measured at 20 degC after 5 days; format: functional; conditions: 120 h, read-out: GI
[8] = tested on: Sclerotinia sclerotiorum; assay: Antifungal activity against Sclerotinia sclerotiorum assessed as inhibition of mycelial growth in contact phase at 670 umol/l measured at 20 degC after 5 days; format: functional; conditions: 120 h, read-out: GI
[9] = tested on: Sclerotinia sclerotiorum; assay: Antifungal activity against Sclerotinia sclerotiorum assessed as inhibition of mycelial growth in contact phase at 1340 umol/l measured at 20 degC after 5 days; format: functional; conditions: 120 h, read-out: GI
[10] = tested on: Sclerotinia sclerotiorum; assay: Antifungal activity against Sclerotinia sclerotiorum assessed as inhibition of mycelial growth in contact phase at 603 umol/l measured at 20 degC after 5 days; format: functional; conditions: 120 h, read-out: GI
[11] = tested on: Sclerotinia sclerotiorum; assay: Antifungal activity against Sclerotinia sclerotiorum assessed as inhibition of mycelial growth in contact phase at 469 umol/l measured at 20 degC after 5 days; format: functional; conditions: 120 h, read-out: GI
[12] = tested on: Sclerotinia sclerotiorum; assay: Antifungal activity against Sclerotinia sclerotiorum assessed as inhibition of mycelial growth in contact phase at 2011 umol/l measured at 20 degC after 5 days; format: functional; conditions: 120 h, read-out: GI
[13] = tested on: Sclerotinia sclerotiorum; assay: Fungistatic activity in Sclerotinia sclerotiorum assessed as inhibition of carpogenic germination in volatile phase at 670 umol/l measured at 20 degC after 5 days relative to control; format: functional; conditions: 120 h
[14] = tested on: Sclerotinia sclerotiorum; assay: Fungistatic activity in Sclerotinia sclerotiorum assessed as inhibition of carpogenic germination in volatile phase at 335 umol/l measured at 20 degC after 5 days relative to control; format: functional; conditions: 120 h
[15] = tested on: Sclerotinia sclerotiorum; assay: Fungistatic activity in Sclerotinia sclerotiorum assessed as inhibition of carpogenic germination in volatile phase at 67 umol/l measured at 20 degC after 5 days relative to control; format: functional; conditions: 120 h
[16] = tested on: Sclerotinia sclerotiorum; assay: Fungistatic activity in Sclerotinia sclerotiorum assessed as inhibition of carpogenic germination in volatile phase at 34 umol/l measured at 20 degC after 5 days relative to control; format: functional; conditions: 120 h
[17] = tested on: Sclerotinia sclerotiorum; assay: Fungistatic activity in Sclerotinia sclerotiorum assessed as sclerotial viability measured at 20 degC after 5 days; format: functional, organism-based; conditions: 120 h
[18] = tested on: Sclerotinia sclerotiorum; assay: Fungistatic activity in Sclerotinia sclerotiorum assessed as inhibition of mycelial growth in volatile phase measured at 20 degC after 5 days; format: functional, organism-based; conditions: 120 h
[19] = tested on: Sclerotinia sclerotiorum; assay: Fungistatic activity in Sclerotinia sclerotiorum assessed as inhibition of mycelial growth in contact phase measured at 20 degC after 5 days; format: functional, organism-based; conditions: 120 h
[20] = tested on: Sclerotinia sclerotiorum; assay: Fungitoxic activity in Sclerotinia sclerotiorum assessed as viability in volatile phase at 670 umol/l measured at 20 degC after 5 days relative to control; format: functional; conditions: 120 h, read-out: GI
[21] = tested on: Sclerotinia sclerotiorum; assay: Fungistatic activity in Sclerotinia sclerotiorum assessed as viability in volatile phase at 335 umol/l measured at 20 degC after 5 days relative to control; format: functional; conditions: 120 h, read-out: GI
[22] = tested on: Sclerotinia sclerotiorum; assay: Fungistatic activity in Sclerotinia sclerotiorum assessed as inhibition of mycelial growth in contact phase at 2011 umol/l measured at 20 degC after 5 days relative to control; format: functional; conditions: 120 h, read-out: GI
[23] = tested on: Sclerotinia sclerotiorum; assay: Fungitoxic activity in Sclerotinia sclerotiorum assessed as inhibition of mycelial growth in volatile phase at 469 umol/l measured at 20 degC after 5 days relative to control; format: functional; conditions: 120 h, read-out: GI
[24] = tested on: Sclerotinia sclerotiorum; assay: Antifungal activity against Sclerotinia sclerotiorum assessed as inhibition of germination in volatile phase at 670 umol/l measured at 20 degC after 5 days; format: functional; conditions: 120 h
[25] = tested on: Sclerotinia sclerotiorum; assay: Antifungal activity against Sclerotinia sclerotiorum assessed as inhibition of germination in volatile phase at 335 umol/l measured at 20 degC after 5 days; format: functional; conditions: 120 h
[26] = tested on: Sclerotinia sclerotiorum; assay: Antifungal activity against Sclerotinia sclerotiorum assessed as inhibition of germination in volatile phase at 201 umol/l measured at 20 degC after 5 days; format: functional; conditions: 120 h
[27] = tested on: Sclerotinia sclerotiorum; assay: Antifungal activity against Sclerotinia sclerotiorum assessed as inhibition of germination in volatile phase at 67 umol/l measured at 20 degC after 5 days; format: functional; conditions: 120 h
[28] = tested on: Sclerotinia sclerotiorum; assay: Antifungal activity against Sclerotinia sclerotiorum assessed as inhibition of germination in volatile phase at 34 umol/l measured at 20 degC after 5 days; format: functional; conditions: 120 h

S=C=NCCc1ccccc1 [PHENETHYLISOTHIOCYANATE]
inhibition in vivo at 134 µM [1]: 76.7% | inhibition in vivo at 67 µM [2]: 70% | inhibition of growth at 670 µM [3]: 100% | inhibition of growth at 469 µM [4]: 64% | inhibition of growth at 335 µM [5]: 51.3% | inhibition of growth at 67 µM [6]: 42.7% | inhibition of growth at 34 µM [7]: 24.3% | inhibition of growth at 670 µM [8]: 59.7% | inhibition of growth at 1340 µM [9]: 92.5% | inhibition of growth at 603 µM [10]: 24.3% | inhibition of growth at 469 µM [11]: 5% | inhibition of growth at 2011 µM [12]: 100% | inhibition at 670 µM [13]: 82.5% | inhibition at 335 µM [14]: 57.5% | inhibition at 67 µM [15]: 55% | inhibition at 34 µM [16]: 12.5% | EC50 [17]: 114 µM | EC50 [18]: 144 µM | EC50 [19]: 650 µM | inhibition of growth at 670 µM [20]: 100% | inhibition of growth at 335 µM [21]: 100% | inhibition of growth at 2011 µM [22]: 100% | inhibition of growth at 469 µM [23]: 100% | inhibition at 670 µM [24]: 100% | inhibition at 335 µM [25]: 100% | inhibition at 201 µM [26]: 66.7% | inhibition at 67 µM [27]: 26.7% | inhibition at 34 µM [28]: 6.7%
